Measurements: ChEMBL document CHEMBL5726915, “Substituted pyrimidines containing acidic groups as TLR7 modulators” (2019)

Target: T1, Toll-like receptor 7 (Homo sapiens, UniProt Q9NYK1)
T1 sequence (Q9NYK1 whole entry): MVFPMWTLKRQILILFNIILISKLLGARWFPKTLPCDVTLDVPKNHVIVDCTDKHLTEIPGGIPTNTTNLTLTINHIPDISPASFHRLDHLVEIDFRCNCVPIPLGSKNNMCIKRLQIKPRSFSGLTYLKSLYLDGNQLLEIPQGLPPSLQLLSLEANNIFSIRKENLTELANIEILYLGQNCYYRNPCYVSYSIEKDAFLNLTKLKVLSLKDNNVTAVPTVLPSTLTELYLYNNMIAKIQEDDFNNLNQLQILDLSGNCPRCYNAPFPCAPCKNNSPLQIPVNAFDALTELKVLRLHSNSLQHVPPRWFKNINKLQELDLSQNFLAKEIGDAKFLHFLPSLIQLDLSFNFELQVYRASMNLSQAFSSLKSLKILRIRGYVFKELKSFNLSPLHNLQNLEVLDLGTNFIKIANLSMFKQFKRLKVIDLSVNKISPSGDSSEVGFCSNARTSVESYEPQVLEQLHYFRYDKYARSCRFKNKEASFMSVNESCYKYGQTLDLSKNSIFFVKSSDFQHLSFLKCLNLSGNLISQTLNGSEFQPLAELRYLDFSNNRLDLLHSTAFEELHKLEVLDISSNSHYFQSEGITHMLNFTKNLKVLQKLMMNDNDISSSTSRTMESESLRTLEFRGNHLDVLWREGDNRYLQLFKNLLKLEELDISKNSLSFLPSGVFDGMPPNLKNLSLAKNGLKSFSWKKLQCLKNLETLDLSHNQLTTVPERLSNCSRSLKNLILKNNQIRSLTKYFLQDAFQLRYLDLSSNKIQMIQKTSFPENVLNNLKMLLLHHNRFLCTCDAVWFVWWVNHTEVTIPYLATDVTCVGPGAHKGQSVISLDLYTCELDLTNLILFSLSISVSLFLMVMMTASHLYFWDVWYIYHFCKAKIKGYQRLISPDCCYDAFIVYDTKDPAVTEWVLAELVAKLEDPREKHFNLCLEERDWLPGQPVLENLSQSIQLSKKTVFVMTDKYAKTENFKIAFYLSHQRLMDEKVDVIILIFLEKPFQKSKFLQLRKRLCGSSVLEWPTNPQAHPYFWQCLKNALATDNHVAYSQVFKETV
Assay: HEK TLR7 Assay: HEK-Blue TLR7 cells were purchased from Invivogen (San Diego, Calif.). The following description was taken from the product information sheet."HEK-Blue hTLR7 cells are designed for studying the stimulation of human TLR7 (hTLR7) by monitoring the activation of NF-kB. HEK-Blue hTLR7 cells were obtained by co-transfection of the hTLR7 gene and an optimized secreted embryonic alkaline phosphatase (SEAP) reporter gene into HEK293 cells. The SEAP reporter gene is placed under the control of the IFN-b minimal promoter fused to five NF-kB and AP-1-binding sites. Stimulation with a TLR7 ligand activates NF-kB and AP-1 which induce the production of SEAP, which is detected by the HEK-Blue™ Detection cell culture medium."A typical assay protocol involved the following steps:1. Cells were cultured according to the product information sheet.2. 10 mM compound stock in DMSO were first diluted to 3 mM and then 3-fold serially diluted using DMSO to afford a 10-pt dilution.3. 3 μl of the diluted DMSO were added to 57 μl HEK-Blue Detection media for a further 20-fold dilution.4. 10 μl of the diluted compound in assay media were added into 40 μl cell culture (in HEK-Blue™ Detection media) in 384-well plate. Final cell concentration=8,000 cells per well.5. The plates were incubated at 37° C. in 5% CO2 for 16 h. SEAP was determined using a spectrophotometer at 620-655 nm.

EC50, < 100 nM:
CCCC[C@@H](CCSC)Nc1nc(N)nc(C)c1Cc1cc(C(=O)NCCCP(=O)(O)O)ccc1OC
CCCC[C@@H](CCS(C)(=O)=O)Nc1nc(N)nc(C)c1Cc1cc(Cc2nn[nH]n2)ccc1OC
CCCC[C@@H](CCSC)Nc1nc(N)nc(C)c1Cc1cc(Cc2nn[nH]n2)ccc1OC
